Test results published in patent publication US9670204B2, “Compounds and pharmaceutical compositions thereof for the treatment of inflammatory disorders” (Galapagos NV, priority 2013, dated 2017).
Each block holds one compound with its values, some of them ahead of it.

What was measured:
hENPP2 [1] = biological target: T1, hENPP2 (UniProtKB/SwissProt Q13822) (Homo sapiens (Human), UniProt Q13822); assay: fluorescent hENPP2 biochemical assay, FS-3 as substrate; details: read-out: FS3-IC50
Description: Compound IC50 values are determined in a fluorescent hENPP2 (UniProtKB/SwissProt Sequence ref Q13822) biochemical assay using the fluorogenic autotaxin substrate FS-3 as substrate. FS-3 is a doubly labeled analog of LPC wherein the fluorophore is quenched through intramolecular energy transfer. Without hENPP2, the emission of the probe is quenched. If the substrate is hydrolyzed by hENPP2, the emission of the probe is not quenched anymore resulting in a fluorescence increase.
The enzyme is diluted in 50 mM Tris-HCl pH 8.0, 250 mM NaCl, 5 mM KCl, 1 mM MgCl2, 1 mM CaCl2, 0.1% fatty acid free BSA in a total volume of 20 μL. Enzyme mixture is added to compounds and the resulting mixture is incubated for 30 min at room temperature under shaking. The reaction is started by the addition of 20 μL of 0.75 μM FS-3 diluted in the same buffer as described above and the mixture is incubated at 30° C. for 30 min. Fluorescence is read on the Envision (Excitation 485 nm, emission 520 nm).

hENPP2 [2] = biological target: T1, hENPP2; assay: hENPP2 biochemical assay, LPC as substrate; details: LPC (palmitoyl 16:0) as substrate
Description: The principle of the assay consists in quantifying the released choline with an enzymatic method using choline oxidase and peroxidase. Choline oxydation by choline oxydase releases betaine and peroxide. The latter is quantified in presence of HRP that converts the peroxide detection agent TOOS and 4-aminoantipyrine into quinoneimine dye. The appearance of quinoneimine dye is measured spectrophotometrically at 555 nm and is proportional to the amount of choline released by ENPP2. Inhibition of ENPP2 will result in a decrease of the signal.
Compound IC50 values are determined in a hENPP2 (UniProtKB/SwissProt Sequence ref Q13822) biochemical assay using LPC as substrate.
The enzyme is diluted in 50 mM Tris-HCl pH 8.5, 500 mM NaCl, 5 mM KCl, 10 mM CaCl2, 0.1% fatty acid free BSA in a total volume of 10 μL. the reaction is started by the addition of 10 μL of 150 μM LPC (palmitoyl 16:0) diluted in the same buffer as described above and the mixture is incubated at 37° C. for 30 min. The reaction is terminated and choline quantified by the addition of a 25 μL of a mixture containing 0.6 U/mL of choline oxidase, 0.6 U/mL of peroxydase, 1.8 mM TOOS, 1.2 mM amino-antipyrine, 20 mM EGTA (stop-developer solution) diluted in the buffer described above. […] is read on the Envision after an incubation of 30 min at room temperature (Excitation 555 nm, excitation light=70%).

SMILES: CCc1nc2ccc(N3CCN(CC(=O)NC)CC3)cn2c1N(C)c1nc(-c2ccc(F)cc2)c(C#N)s1 [Compound 22, 2-(4-(3-((5-cyano-4-(4-fluorophenyl)thiazol-2-yl)(methyl)amino)-2-ethylimidazo[1,2-a]pyridin-6-yl)piperazin-1-yl)-N-methylacetamide]
IC50 (hENPP2 [1]): 0.01 to 100 nM | IC50 (hENPP2 [2]): 0.01 to 100 nM

SMILES: CCc1nc2ccc(C3CCN(S(C)(=O)=O)CC3)cn2c1N(C)c1nc(-c2ccc(F)cc2)c(Br)s1 [Compound 135, 5-bromo-N-(2-ethyl-6-(1-(methylsulfonyl)piperidin-4-yl)imidazo [1,2-a]pyridin-3-yl)-4-(4-fluorophenyl)-N-methylthiazol-2-amine]
IC50 (hENPP2 [1]): 0.01 to 100 nM

SMILES: CCc1nc2ccc(C3CCN(CC(=O)N4CCC(O)C4)CC3)cn2c1N(C)c1nc(-c2ccc(F)cc2)cs1 (centres unmarked) [Compound 223, 2-(4-(2-ethyl-3-((4-(4-fluorophenyl)thiazol-2-yl)(methyl)amino)imidazo[1,2-a]pyridin-6-yl)piperidin-1-yl)-1-(3-hydroxypyrrolidin-1-yl)ethanone]
IC50 (hENPP2 [2]): 100 to 500 nM

SMILES: CCc1nc2ccc(C3=CCN(C(=O)OC(C)(C)C)CC3)cn2c1N(C)c1nc(-c2ccc(Cl)cc2)cs1 [Compound 230, tert-butyl 4-(3-((4-(4-chlorophenyl)thiazol-2-yl)(methyl)amino)-2-ethylimidazo[1,2-a]pyridin-6-yl)-5,6-dihydropyridine-1(2H)-carboxylate]
IC50 (hENPP2 [1]): 0.01 to 100 nM

SMILES: CCc1nc2ccc(C3=CCSCC3)cn2c1N(C)c1nc(-c2ccc(Cl)cc2)cs1 [Compound 231, 4-(4-chlorophenyl)-N-(6-(3,6-dihydro-2H-thiopyran-4-yl)-2-ethylimidazo[1,2-a]pyridin-3-yl)-N-methylthiazol-2-amine]
IC50 (hENPP2 [1]): 0.01 to 100 nM

SMILES: CCc1nc2ccc(N3CCC(F)(F)CC3)cn2c1N(C)c1nc(-c2ccc(F)cc2)cs1 [Compound 232, N-(6-(4,4-difluoropiperidin-1-yl)-2-ethylimidazo[1,2-a]pyridin-3-yl)-4-(4-fluorophenyl)-N-methylthiazol-2-amine]
IC50 (hENPP2 [1]): 0.01 to 100 nM

SMILES: CCc1nc2ccc(C3CCN(CC4CCCCC4)CC3)cn2c1N(C)c1nc(-c2ccc(F)cc2)cs1 [Compound 235, N-(6-(1-(cyclohexylmethyl)piperidin-4-yl)-2-ethylimidazo[1,2-a]pyridin-3-yl)-4-(4-fluorophenyl)-N-methylthiazol-2-amine]
IC50 (hENPP2 [1]): 0.01 to 100 nM

SMILES: CCc1nc2ccc(C3=NCC(C)O3)cn2c1N(C)c1nc(-c2ccc(F)cc2)cs1 (centres unmarked) [Compound 236, N-(2-ethyl-6-(5-methyl-4,5-dihydrooxazol-2-yl)imidazo[1,2-a]pyridin-3-yl)-4-(4-fluorophenyl)-N-methylthiazol-2-amine]
IC50 (hENPP2 [1]): 100 to 500 nM

SMILES: CCc1nc2ccc(C3=NC(C)CO3)cn2c1N(C)c1nc(-c2ccc(F)cc2)cs1 (centres unmarked) [Compound 237, N-(2-ethyl-6-(4-methyl-4,5-dihydrooxazol-2-yl)imidazo[1,2-a]pyridin-3-yl)-4-(4-fluorophenyl)-N-methylthiazol-2-amine]
IC50 (hENPP2 [1]): 0.01 to 100 nM

SMILES: CCc1nc2ccc(C3=NC(C(=O)O)CO3)cn2c1N(C)c1nc(-c2ccc(F)cc2)cs1 (centres unmarked) [Compound 238, 2-(2-ethyl-3-((4-(4-fluorophenyl)thiazol-2-yl)(methyl)amino)imidazo[1,2-a]pyridin-6-yl)-4,5-dihydro-oxazole-4-carboxylic acid]
IC50 (hENPP2 [1]): 100 to 500 nM

SMILES: CCc1nc2ccc(N3CCNCC3)cn2c1N(C)c1nc(-c2ccc(F)cc2)cs1 [Gen-10-e]
IC50 (hENPP2 [1]): 0.01 to 100 nM

Next, values leading:

IC50 (hENPP2 [1]): 0.01 to 100 nM | IC50 (hENPP2 [2]): > 1000 nM
SMILES: CCc1nc2ccc(N3CCN(C(=O)OC(C)(C)C)CC3)cn2c1N(C)c1nc(-c2ccc(F)cc2)cs1 [Compound 23, tert-butyl 4-(2-ethyl-3-((4-(4-fluorophenyl)thiazol-2-yl)(methyl)amino)imidazo[1,2-a]pyridin-6-yl)piperazine-1-carboxylate]

IC50 (hENPP2 [1]): 0.01 to 100 nM | IC50 (hENPP2 [2]): 100 to 500 nM
SMILES: CCc1nc2ccc(N3CCN(CC(=O)N4CC(O)C4)CC3)cn2c1N(C)c1nc(-c2ccc(F)cc2)cs1 [Compound 24, 2-(4-(2-ethyl-3-((4-(4-fluorophenyl)thiazol-2-yl)(methyl)amino)imidazo[1,2-a]pyridin-6-yl)piperazin-1-yl)-1-(3-hydroxyazetidin-1-yl)ethanone]

IC50 (hENPP2 [1]): 0.01 to 100 nM | IC50 (hENPP2 [2]): 100 to 500 nM
SMILES: CCc1nc2ccc(N3CCN(CC(=O)N4CC[C@H](O)C4)CC3)cn2c1N(C)c1nc(-c2ccc(F)cc2)cs1 [Compound 25, (S)-2-(4-(2-ethyl-3-((4-(4-fluorophenyl)thiazol-2-yl)(methyl)amino)imidazo[1,2-a]pyridin-6-yl)piperazin-1-yl)-1-(3-hydroxypyrrolidin-1-yl)ethanone]

IC50 (hENPP2 [1]): 0.01 to 100 nM | IC50 (hENPP2 [2]): 100 to 500 nM
SMILES: CCc1nc2ccc(N3CCN(CC(=O)N4CCC(NC(C)=O)C4)CC3)cn2c1N(C)c1nc(-c2ccc(F)cc2)cs1 (centres unmarked) [Compound 27, N-(1-(2-(4-(2-ethyl-3-((4-(4-fluorophenyl)thiazol-2-yl)(methyl)amino)imidazo[1,2-a]pyridin-6-yl)piperazin-1-yl)acetoyl)pyrrolidin-3-yl)acetamide]

IC50 (hENPP2 [1]): 0.01 to 100 nM | IC50 (hENPP2 [2]): 100 to 500 nM
SMILES: CCc1nc2ccc(N3CCN(CC(=O)N(C)C)CC3)cn2c1N(C)c1nc(-c2ccc(F)cc2)cs1 [Compound 35, 2-(4-(2-ethyl-3-((4-(4-fluorophenyl)thiazol-2-yl)(methyl)amino)imidazo[1,2-a]pyridin-6-yl)piperazin-1-yl)-N,N-dimethylacetamide]

IC50 (hENPP2 [1]): 0.01 to 100 nM | IC50 (hENPP2 [2]): 100 to 500 nM
SMILES: CCOC(=O)CN1CCN(c2ccc3nc(CC)c(N(C)c4nc(-c5ccc(F)cc5)cs4)n3c2)CC1 [Compound 36, ethyl 2-(4-(2-ethyl-3-((4-(4-fluorophenyl)thiazol-2-yl)(methyl)amino)imidazo [1,2-a]pyridin-6-yl)piperazin-1-yl)acetate]

IC50 (hENPP2 [1]): 0.01 to 100 nM | IC50 (hENPP2 [2]): > 1000 nM
SMILES: CCc1nc2ccc(N3CCN(CC#N)CC3)cn2c1N(C)c1nc(-c2ccc(F)cc2)cs1 [Compound 38, 2-(4-(2-ethyl-3-((4-(4-fluorophenyl)thiazol-2-yl)(methyl)amino)imidazo[1,2-a]pyridin-6-yl)piperazin-1-yl)acetonitrile]

IC50 (hENPP2 [1]): 0.01 to 100 nM | IC50 (hENPP2 [2]): > 1000 nM
SMILES: CCc1nc2ccc(N3CCN(Cc4nnnn4C4CC4)CC3)cn2c1N(C)c1nc(-c2ccc(F)cc2)cs1 [Compound 39, N-(6-(4-((1-cyclopropyl-1H-tetrazol-5-yl)methyl)piperazin-1-yl)-2-ethylimidazo[1,2-a]pyridin-3-yl)-4-(4-fluorophenyl)-N-methylthiazol-2-amine]

IC50 (hENPP2 [1]): 0.01 to 100 nM | IC50 (hENPP2 [2]): > 1000 nM
SMILES: CCc1nc2ccc(N3CCN(Cc4ncon4)CC3)cn2c1N(C)c1nc(-c2ccc(F)cc2)cs1 [Compound 41, N-(6-(4-((1,2,4-oxadiazol-3-yl)methyl)piperazin-1-yl)-2-ethylimidazo[1,2-a]pyridin-3-yl)-4-(4-fluorophenyl)-N-methylthiazol-2-amine]

IC50 (hENPP2 [1]): 0.01 to 100 nM | IC50 (hENPP2 [2]): > 1000 nM
SMILES: CCc1nc2ccc(N3CCN(CC(=O)O)CC3)cn2c1N(C)c1nc(-c2ccc(F)cc2)cs1 [Compound 42, 2-(4-(2-ethyl-3-((4-(4-fluorophenyl)thiazol-2-yl)(methyl)amino)imidazo[1,2-a]pyridin-6-yl)piperazin-1-yl)acetic acid]

IC50 (hENPP2 [2]): 500 to 1000 nM
SMILES: CCc1nc2ccc(N3CCN(C(=O)C4CC(=O)N(Cc5ccccc5)C4)CC3)cn2c1N(C)c1nc(-c2ccc(F)cc2)cs1 (centres unmarked) [Compound 205, 1-Benzyl-4-[4-(2-ethyl-3-{[4-(4-fluoro-phenyl)-thiazol-2-yl]-methyl-amino}-imidazo[1,2-a]pyridin-6-yl)-piperazine-1-carbonyl]-pyrrolidin-2-one]

IC50 (hENPP2 [2]): > 1000 nM
SMILES: CCOC(=O)C(=O)N1CCN(c2ccc3nc(CC)c(N(C)c4nc(-c5ccc(F)cc5)cs4)n3c2)CC1 [Compound 228, ethyl 2-(4-(2-ethyl-3-((4-(4-fluorophenyl)thiazol-2-yl)(methyl)amino)imidazo[1,2-a]pyridin-6-yl)piperazin-1-yl)-2-oxoacetate]

IC50 (hENPP2 [1]): 0.01 to 100 nM
SMILES: CCc1nc2ccc(N3CCN(C(=O)OC(C)(C)C)CC3)cn2c1N(C)c1nc(-c2ccc(Cl)cc2)cs1 [Compound 234, tert-butyl 4-(3-((4-(4-chlorophenyl)thiazol-2-yl)(methyl)amino)-2-ethylimidazo[1,2-a]pyridin-6-yl)piperazine-1-carboxylate]
